Measurements reported in ChEMBL document CHEMBL4602617, “Discovery and optimization of heteroaryl piperazines as potent and selective PI3Kδ inhibitors” (Bioorg Med Chem Lett, 2020).

Tests used:
[1] = molecular target: Inhibitor of nuclear factor kappa-B kinase subunit alpha (Homo sapiens, UniProt O15111); experiment: Inhibition of recombinant full length His-tagged human IKKalpha expressed in baculovirus expression system after 1 hr in presence of ATP by Adapta assay
[2] = molecular target: Tyrosine-protein kinase ITK/TSK (Homo sapiens, UniProt Q08881); experiment: Inhibition of recombinant full length human GST-tagged ITK expressed in baculovirus expression system using tyrosine-1 peptide as substrate incubated for 60 mins in presence of ATP by Z'-LYTE assay
[3] = molecular target: Fibroblast growth factor receptor 3 (Homo sapiens, UniProt P22607); experiment: Inhibition of recombinant His-tagged human FGFR3 (399 to 806 residues) cytoplasmic domain expressed in baculovirus expression system using Tyr 04 peptide as substrate after 1 hr in presence of ATP by Z'-LYTE assay
[4] = molecular target: Serine/threonine-protein kinase Nek9 (Homo sapiens, UniProt Q8TD19); experiment: Inhibition of recombinant human GST-tagged NEK9 catalytic domain (347 to 732 residues) expressed in baculovirus expression system using serine/threonine-7 peptide as substrate incubated for 60 mins in presence of ATP by Z'-LYTE assay
[5] = molecular target: MAP/microtubule affinity-regulating kinase 4 (Homo sapiens, UniProt Q96L34); experiment: Inhibition of recombinant full length human GST-tagged MARK4 expressed in baculovirus expression system using serine/threonine-25 peptide as substrate incubated for 60 mins in presence of ATP by Z'-LYTE assay
[6] = molecular target: MAP/microtubule affinity-regulating kinase 3 (Homo sapiens, UniProt P27448); experiment: Inhibition of recombinant full length human GST-tagged MARK3 expressed in baculovirus expression system using serine/threonine-25 peptide as substrate incubated for 60 mins in presence of ATP by Z'-LYTE assay
[7] = molecular target: Leucine-rich repeat serine/threonine-protein kinase 2 (Homo sapiens, UniProt Q5S007); experiment: Inhibition of recombinant human GST-tagged LRRK2 catalytic domain (970 to 2527 amino acids) expressed in baculovirus expression system using ERM (LRRKtide) peptide as substrate incubated for 60 mins in presence of ATP by Adapta assay
[8] = molecular target: Rho-associated protein kinase 2 (Homo sapiens, UniProt O75116); experiment: Inhibition of recombinant human GST-tagged ROCK2 catalytic domain expressed in baculovirus expression system using serine/threonine-13 peptide as substrate incubated for 60 mins in presence of ATP by Z'-LYTE assay
[9] = species on record: Homo sapiens; experiment: Inhibition of human nicotinic acetylcholine receptor at 10 uM relative to control
[10] = molecular target: Vascular endothelial growth factor receptor 1 (Homo sapiens, UniProt P17948); experiment: Inhibition of recombinant human GST-tagged FLT1 catalytic domain (781 to 1338 residues) expressed in baculovirus expression system using tyrosine-4 peptide as substrate incubated for 60 mins in presence of ATP by Z'-LYTE assay
[11] = molecular target: Ephrin type-A receptor 8 (Homo sapiens, UniProt P29322); experiment: Inhibition of recombinant human GST-tagged EPHA8 catalytic domain (565 to 1005 residues) expressed in baculovirus expression system using tyrosine-2 peptide as substrate incubated for 60 mins in presence of ATP by Z'-LYTE assay
[12] = molecular target: Phosphatidylinositol 4-kinase alpha (Homo sapiens, UniProt P42356); experiment: Inhibition of recombinant full length human N-terminal GST-tagged PI4KA expressed in baculovirus expression system using PI lipid as substrate incubated for 60 mins in presence of ATP by Adapta assay
[13] = species on record: Rattus norvegicus; experiment: Inhibition of rat P2Y receptor at 10 uM relative to control
[14] = molecular target: Mitogen-activated protein kinase 14 (Homo sapiens, UniProt Q16539); experiment: Inhibition of recombinant full length GST-tagged human MAPK14 expressed in Escherichia coli using Ser/Thr 04 as substrate after 1 hr in presence of ATP by Z'LYTE assay
[15] = molecular target: RAC-alpha serine/threonine-protein kinase (Homo sapiens, UniProt P31749); experiment: Inhibition of recombinant full length human His-tagged AKT1 expressed in baculovirus expression system using serine/threonine-06 peptide as substrate incubated for 60 mins in presence of ATP by Z'-LYTE assay
[16] = molecular target: Phosphatidylinositol 4-kinase beta (Homo sapiens, UniProt Q9UBF8); experiment: Inhibition of recombinant full length human GST-tagged PI4KB expressed in baculovirus expression system using PI lipid as substrate incubated for 60 mins in presence of ATP by Adapta assay
[17] = molecular target: Protein kinase C gamma type (Homo sapiens, UniProt P05129); experiment: Inhibition of recombinant full length human GST-tagged PRKCG expressed in insect expression system using serine/threonine-7 peptide as substrate incubated for 60 mins in presence of ATP by Z'-LYTE assay
[18] = molecular target: Serine/threonine-protein kinase SIK2 (Homo sapiens, UniProt Q9H0K1); experiment: Inhibition of recombinant full length GST-tagged human SNF1LK2 expressed in baculovirus expression system using Ser/Thr 25 as substrate in presence of ATP after 1 hr by Z'LYTE assay
[19] = molecular target: Insulin receptor (Homo sapiens, UniProt P06213); experiment: Inhibition of recombinant human GST-tagged INSR cytoplasmic domain expressed in baculovirus expression system using tyrosine-1 peptide as substrate incubated for 60 mins in presence of ATP by Z'-LYTE assay
[20] = molecular target: Serine/threonine-protein kinase PLK3 (Homo sapiens, UniProt Q9H4B4); experiment: Inhibition of recombinant human GST-tagged PLK3 catalytic domain (58 to 340 residues) expressed in baculovirus expression system using serine/threonine-16 peptide as substrate incubated for 60 mins in presence of ATP by Z'-LYTE assay
[21] = molecular target: Melanocortin receptor 5 (Homo sapiens) (UniProt P33032); experiment: Displacement of [125I]NDP-alpha-MSH from full length human recombinant MC5 receptor expressed in HEK293 cells at 10 uM measured after 120 mins by radiometric scintillation analysis relative to control; assay type: cell-based
[22] = molecular target: Beta-2 adrenergic receptor (Homo sapiens) (UniProt P07550); experiment: Displacement of [3H]CGP-12177 from full-length recombinant human beta2 adrenergic receptor expressed in CHO cells co-expressing NBR1 at 10 uM measured after 60 mins by scintillation counting method relative to control; assay type: cell-based
[23] = molecular target: G protein-coupled receptor kinase 4 (Homo sapiens, UniProt P32298); experiment: Inhibition of recombinant full length human GST-tagged GRK4 expressed in baculovirus expression system using serine/threonine-16 peptide as substrate incubated for 60 mins in presence of ATP by Z'-LYTE assay
[24] = molecular target: Mitogen-activated protein kinase kinase kinase kinase 4 (Homo sapiens, UniProt O95819); experiment: Inhibition of recombinant GST-tagged human MAP4K4 catalytic domain expressed in baculovirus expression system using Ser/Thr 07 peptide as substrate after 1 hr in presence of ATP by Z'-LYTE assay
[25] = molecular target: Calcium/calmodulin-dependent protein kinase type II subunit beta (Homo sapiens, UniProt Q13554); experiment: Inhibition of recombinant full length human His-tagged CAMK2beta expressed in baculovirus expression system using serine/threonine-17 peptide as substrate incubated for 60 mins in presence of ATP by Z'-LYTE assay

Sequence of Phosphatidylinositol 4-kinase beta (Q9UBF8 whole entry): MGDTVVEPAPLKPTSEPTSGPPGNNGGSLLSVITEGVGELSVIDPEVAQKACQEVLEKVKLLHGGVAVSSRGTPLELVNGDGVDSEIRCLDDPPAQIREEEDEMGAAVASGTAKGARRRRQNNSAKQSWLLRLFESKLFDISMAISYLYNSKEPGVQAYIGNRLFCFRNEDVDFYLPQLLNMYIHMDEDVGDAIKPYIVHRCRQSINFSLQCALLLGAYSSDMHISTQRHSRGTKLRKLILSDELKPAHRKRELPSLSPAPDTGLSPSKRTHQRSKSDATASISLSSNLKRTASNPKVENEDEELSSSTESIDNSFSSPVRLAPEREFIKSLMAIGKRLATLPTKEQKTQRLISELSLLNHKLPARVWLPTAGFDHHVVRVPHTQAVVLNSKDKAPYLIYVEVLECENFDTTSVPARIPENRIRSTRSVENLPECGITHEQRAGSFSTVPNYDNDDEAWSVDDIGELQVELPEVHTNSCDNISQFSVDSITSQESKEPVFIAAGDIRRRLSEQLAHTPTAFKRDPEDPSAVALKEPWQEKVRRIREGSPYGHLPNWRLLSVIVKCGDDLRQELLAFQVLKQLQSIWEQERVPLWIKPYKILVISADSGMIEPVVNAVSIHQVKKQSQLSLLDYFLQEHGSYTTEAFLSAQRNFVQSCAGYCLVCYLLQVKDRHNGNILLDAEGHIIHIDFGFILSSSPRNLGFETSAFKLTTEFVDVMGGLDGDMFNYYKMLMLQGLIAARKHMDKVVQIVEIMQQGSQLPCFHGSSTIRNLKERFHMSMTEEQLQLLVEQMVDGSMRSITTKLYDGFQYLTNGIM
Sequence of Mitogen-activated protein kinase kinase kinase kinase 4 (O95819 whole entry, the tested form may be a part): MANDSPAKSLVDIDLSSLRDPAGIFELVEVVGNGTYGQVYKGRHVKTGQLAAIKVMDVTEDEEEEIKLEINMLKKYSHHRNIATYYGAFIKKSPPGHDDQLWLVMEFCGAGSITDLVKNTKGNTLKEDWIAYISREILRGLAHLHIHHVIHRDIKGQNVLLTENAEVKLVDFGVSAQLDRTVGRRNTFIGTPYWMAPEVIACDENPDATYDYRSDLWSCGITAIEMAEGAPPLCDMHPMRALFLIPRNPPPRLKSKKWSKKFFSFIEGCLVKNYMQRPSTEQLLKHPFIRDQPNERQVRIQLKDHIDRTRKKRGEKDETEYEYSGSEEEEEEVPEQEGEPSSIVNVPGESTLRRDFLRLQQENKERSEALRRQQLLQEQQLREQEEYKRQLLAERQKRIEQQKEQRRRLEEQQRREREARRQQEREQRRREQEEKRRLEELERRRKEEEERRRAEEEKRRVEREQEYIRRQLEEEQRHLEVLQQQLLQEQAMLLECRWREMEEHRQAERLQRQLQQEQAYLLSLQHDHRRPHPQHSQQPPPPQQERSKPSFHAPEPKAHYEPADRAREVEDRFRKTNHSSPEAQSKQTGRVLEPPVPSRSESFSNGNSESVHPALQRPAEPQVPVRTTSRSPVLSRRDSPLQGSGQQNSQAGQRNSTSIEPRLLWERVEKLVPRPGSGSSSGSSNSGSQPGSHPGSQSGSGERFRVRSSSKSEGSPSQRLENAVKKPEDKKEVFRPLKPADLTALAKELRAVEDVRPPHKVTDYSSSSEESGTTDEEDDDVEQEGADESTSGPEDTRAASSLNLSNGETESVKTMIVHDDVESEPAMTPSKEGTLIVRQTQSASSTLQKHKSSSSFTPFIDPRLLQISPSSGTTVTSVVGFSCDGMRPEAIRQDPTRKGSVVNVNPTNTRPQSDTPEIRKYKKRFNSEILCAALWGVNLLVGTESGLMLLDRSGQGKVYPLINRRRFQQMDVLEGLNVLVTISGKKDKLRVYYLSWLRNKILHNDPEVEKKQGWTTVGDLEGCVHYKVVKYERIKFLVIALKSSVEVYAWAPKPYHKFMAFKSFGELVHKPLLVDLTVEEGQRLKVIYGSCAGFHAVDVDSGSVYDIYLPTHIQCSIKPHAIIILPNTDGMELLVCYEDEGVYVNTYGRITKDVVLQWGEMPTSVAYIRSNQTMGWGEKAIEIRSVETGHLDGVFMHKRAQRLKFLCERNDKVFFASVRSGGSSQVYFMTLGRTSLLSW
Sequence of Serine/threonine-protein kinase SIK2 (Q9H0K1 whole entry, the tested form may be a part): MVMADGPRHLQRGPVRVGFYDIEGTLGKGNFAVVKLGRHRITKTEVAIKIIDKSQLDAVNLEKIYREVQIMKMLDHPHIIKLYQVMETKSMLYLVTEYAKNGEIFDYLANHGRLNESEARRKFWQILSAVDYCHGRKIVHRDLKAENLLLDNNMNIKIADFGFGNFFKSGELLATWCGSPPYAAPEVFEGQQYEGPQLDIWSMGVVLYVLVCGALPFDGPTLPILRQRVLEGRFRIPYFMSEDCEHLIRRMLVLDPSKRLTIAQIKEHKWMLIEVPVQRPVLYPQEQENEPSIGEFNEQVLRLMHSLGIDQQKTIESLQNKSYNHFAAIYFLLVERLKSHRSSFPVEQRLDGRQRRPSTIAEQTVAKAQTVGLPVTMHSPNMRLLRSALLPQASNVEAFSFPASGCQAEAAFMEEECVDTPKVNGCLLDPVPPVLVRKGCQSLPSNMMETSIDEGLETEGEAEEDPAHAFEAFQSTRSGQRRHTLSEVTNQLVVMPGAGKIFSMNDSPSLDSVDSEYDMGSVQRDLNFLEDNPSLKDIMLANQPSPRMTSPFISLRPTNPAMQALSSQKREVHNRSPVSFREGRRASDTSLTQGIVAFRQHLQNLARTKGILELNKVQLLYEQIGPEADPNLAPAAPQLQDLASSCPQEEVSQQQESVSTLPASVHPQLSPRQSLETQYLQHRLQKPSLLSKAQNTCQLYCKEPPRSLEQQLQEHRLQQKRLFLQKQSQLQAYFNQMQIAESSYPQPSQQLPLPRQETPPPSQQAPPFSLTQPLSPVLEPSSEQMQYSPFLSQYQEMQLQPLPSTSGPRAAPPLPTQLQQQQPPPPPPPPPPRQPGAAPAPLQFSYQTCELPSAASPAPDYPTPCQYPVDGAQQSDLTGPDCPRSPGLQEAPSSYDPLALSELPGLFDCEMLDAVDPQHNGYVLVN
Sequence of RAC-alpha serine/threonine-protein kinase (P31749 whole entry): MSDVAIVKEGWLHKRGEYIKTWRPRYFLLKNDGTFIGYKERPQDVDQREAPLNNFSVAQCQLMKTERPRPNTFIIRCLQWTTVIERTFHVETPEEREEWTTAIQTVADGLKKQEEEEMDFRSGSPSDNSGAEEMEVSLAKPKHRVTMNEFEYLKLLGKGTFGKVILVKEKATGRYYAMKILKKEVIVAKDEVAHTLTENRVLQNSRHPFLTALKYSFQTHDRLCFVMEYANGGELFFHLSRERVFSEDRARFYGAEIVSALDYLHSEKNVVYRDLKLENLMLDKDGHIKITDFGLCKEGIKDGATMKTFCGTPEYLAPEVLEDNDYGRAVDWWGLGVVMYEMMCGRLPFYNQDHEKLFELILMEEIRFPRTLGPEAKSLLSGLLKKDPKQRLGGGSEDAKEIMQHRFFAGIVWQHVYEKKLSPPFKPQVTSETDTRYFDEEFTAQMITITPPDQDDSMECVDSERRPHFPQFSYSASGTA
Sequence of Beta-2 adrenergic receptor (Homo sapiens) (P07550 whole entry, looked up): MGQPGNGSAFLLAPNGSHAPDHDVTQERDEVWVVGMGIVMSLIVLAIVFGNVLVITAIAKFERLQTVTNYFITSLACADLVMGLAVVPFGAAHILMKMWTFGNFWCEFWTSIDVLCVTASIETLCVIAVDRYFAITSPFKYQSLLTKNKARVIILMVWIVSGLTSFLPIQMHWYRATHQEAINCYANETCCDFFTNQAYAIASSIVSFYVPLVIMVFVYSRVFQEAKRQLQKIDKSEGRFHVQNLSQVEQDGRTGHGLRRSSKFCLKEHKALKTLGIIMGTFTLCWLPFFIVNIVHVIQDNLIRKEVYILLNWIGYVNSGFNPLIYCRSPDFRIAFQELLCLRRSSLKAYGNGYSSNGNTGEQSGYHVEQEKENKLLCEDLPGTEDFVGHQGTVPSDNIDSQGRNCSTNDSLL
Sequence of Serine/threonine-protein kinase PLK3 (Q9H4B4 whole entry, the tested form may be a part): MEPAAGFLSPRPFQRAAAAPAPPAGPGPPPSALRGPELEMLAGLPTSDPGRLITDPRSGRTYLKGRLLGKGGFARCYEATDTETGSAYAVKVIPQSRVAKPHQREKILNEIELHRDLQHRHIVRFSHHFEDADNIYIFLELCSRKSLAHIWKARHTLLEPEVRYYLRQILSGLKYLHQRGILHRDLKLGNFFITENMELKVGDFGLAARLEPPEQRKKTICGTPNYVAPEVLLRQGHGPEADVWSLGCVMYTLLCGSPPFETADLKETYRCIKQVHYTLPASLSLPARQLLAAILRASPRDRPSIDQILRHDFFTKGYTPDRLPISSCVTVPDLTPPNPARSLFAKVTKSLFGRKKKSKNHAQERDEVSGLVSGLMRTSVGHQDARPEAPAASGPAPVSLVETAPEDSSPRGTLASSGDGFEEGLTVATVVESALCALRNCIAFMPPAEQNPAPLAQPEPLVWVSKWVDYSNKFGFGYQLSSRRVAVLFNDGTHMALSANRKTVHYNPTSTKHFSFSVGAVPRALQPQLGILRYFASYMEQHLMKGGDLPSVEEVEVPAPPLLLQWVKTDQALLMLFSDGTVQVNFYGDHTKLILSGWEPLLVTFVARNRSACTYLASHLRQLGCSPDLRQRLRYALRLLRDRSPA
Sequence of Melanocortin receptor 5 (Homo sapiens) (P33032 whole entry): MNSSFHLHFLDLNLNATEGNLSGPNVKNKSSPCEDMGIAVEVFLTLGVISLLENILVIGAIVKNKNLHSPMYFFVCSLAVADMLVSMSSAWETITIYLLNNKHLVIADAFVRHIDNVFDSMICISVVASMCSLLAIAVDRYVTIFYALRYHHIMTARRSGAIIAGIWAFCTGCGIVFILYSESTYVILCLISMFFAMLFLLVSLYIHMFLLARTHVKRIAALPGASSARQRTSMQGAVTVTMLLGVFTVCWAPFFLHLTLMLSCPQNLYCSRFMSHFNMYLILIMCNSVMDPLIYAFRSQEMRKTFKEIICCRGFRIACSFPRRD

C[C@@H]1C[C@H]1C(=O)N1CCN(c2cnc(C#N)c(-c3cnn(C)c3)n2)C[C@H]1C
> 100 µM: IC50 [1] | IC50 [2] | IC50 [3] | IC50 [4] | IC50 [5] | IC50 [6] | IC50 [7] | IC50 [8] | IC50 [10] | IC50 [11] | IC50 [12] | IC50 [14] | IC50 [15] | IC50 [16] | IC50 [17] | IC50 [18] | IC50 [19] | IC50 [20] | IC50 [25]
26.3 µM: IC50 [24]
34%: inhibition [13]
22%: inhibition [21]
7%: inhibition [22]
10%: inhibition [9]
34.7 µM: IC50 [23]
